Experimental data from EP3732162B1, “NITROALKENE NON STEROIDAL ANTI-INFLAMMATORY DRUGS (NA-NSAIDS) AND METHODS OF TREATING INFLAMMATION RELATED CONDITIONS” (Institut Pasteur De Montevideo, priority 2017, dated 2019).

Assays:
inflammasome = assay: IL-1β secretion by ELISA in PMA-differentiated macrophages, compound given together with ATP (2nd signal); type: cell-based
Experimental: (§1) In order to compare benzoic acid (BA) and nitroalkene benzoic acid (BANA) over NF-κB and inflammasome function in macrophages, TUP-1 cells were differentiated into macrophages with PMA (200 nM, 48 h). Cells were then stimulated with LPS (250ng/mL) and with ATP (5mM, 45 minutes). Together with LPS (1st signal, FIG. 6) or ATP (2nd signal, FIG. 7), cells were treated with Benzoic acid (30 µM) or BANA (30 µM). Supernatants were collected and IL-1β secretion was measured by ELISA. […] Thus, BANA inhibits both the generation of the inflammasome, and inhibits the inflammasome itself.
(§2) Further exemplary studies were performed with Flufenamate (FluFE) and nitroalkene flufenamate (FluFENA). In order to study the effect of Flufenamate (FluFE) and FluFENA over NF-κB and inflammasome function in macrophages, THP-1 cells were differentiated into macrophages with PMA (200 nM, 48 h). Cells were stimulated with LPS (250ng/mL) and then with ATP (5mM, 45 minutes). Together with LPS (1st signal, FIG. 8) or ATP (2nd signal, FIG. 9), cells were treated with FluFE (5 µM) or FluFENA (5 µM). Supernatant were collected and IL-1β secretion was measured by ELISA. Cell viability was assessed by the MTT assay.
(§3) To study the effect of ibuprofen and IBUNA over NF-xB and inflammasome function in macrophages, TUP-1 cells were differentiated into macrophages with PMA (200 nM, 48 h). Cells were stimulated with LPS (250ng/mL) and then with ATP (5mM, 45 minutes). Together with LPS (1st signal, FIG. 10) or ATP (2nd signal, FIG. 11), cells were treated with Ibuprofen (20 µM) or IBUNA (20 µM). Supernatant were collected and IL-1β secretion was measured by ELISA.

NF-κB = assay: IL-1β secretion by ELISA in PMA-differentiated macrophages, compound given together with LPS (1st signal); type: cell-based
Experimental: as §1, §2, §3

[1] = Adduct formation with beta mercaptoethanol (BME), followed spectrophotometrically
From the text: While not wishing to be bound by theory, during inflammation, reversible reactions with nucleophilic molecules such as NF-κB and the inflammasomes have shown to modify inflammatory response. One method to identify reactions with nucleophilic targets at physiological pH is by screening with beta mercaptoethanol ("BME"). […] Thus, the nitroalkene NSAIDs within the scope of the present invention react with nucleophilic molecules such as NF-κB and the inflammasomes to modify inflammatory response.

IL-1β = assay: In vivo model of peritonitis (LPS-induced inflammatory response), IL-1β by ELISA; details: mice, 50 mg/kg IP 1 hour before LPS 10 mg/kg IP for 2 hours; as opposed to BA; FIG. 12
Experimental: Mice were treated with BANA, Benzoic Acid (50 mg/kg, IP) or the vehicle (100 mM Phosphate buffer 10% DMSO) for 1 hour. Then were injected with LPS (10 mg/kg, IP) or PBS for 2 hours. Mice were collected for peritoneal wash and blood samples were extracted. The peritoneal wash and plasma were stored to measure IL-1β by ELISA. The values are show as mean ± SD from three mice per condition and we have used the statistic test one-way ANOVA with Bonferroni.

O=C(O)c1cc(/C=C/[N+](=O)[O-])ccc1Nc1cccc(C(F)(F)F)c1 [FluFENA, (E)-5-(2-nitrovinyl)-2-((3-(trifluoromethyl)phenyl)amino)benzoic acid]
IL-1β secretion (inflammasome; THP-1 cells differentiated with PMA, 5 µM together with ATP 5mM 45 minutes (2nd signal), compared with FluFE 5 µM, FIG. 9): unexpected advantage
IL-1β secretion (NF-κB; THP-1 cells differentiated with PMA, 5 µM together with LPS 250ng/mL (1st signal), compared with FluFE 5 µM, FIG. 8): unexpected advantage
nitroalkene NSAID adduction with BME (absorbance) ([1]; 12.5 µM FluFENA with 125 µM BME, 100 mM phosphate buffer pH 7.4, FIG. 3): absorbance increase

O=C(O)c1ccc(/C=C/[N+](=O)[O-])cc1 [BANA, (E)-4-(2-nitrovinyl)benzoic acid]
IL-1β secretion (inflammasome; TUP-1 cells differentiated with PMA, LPS 250ng/mL, then 30 µM together with ATP 5mM 45 minutes (2nd signal), vs Benzoic acid 30 µM, FIG. 7): inhibition of IL-1β secretion
IL-1β secretion (NF-κB; TUP-1 cells differentiated with PMA, 30 µM together with LPS 250ng/mL (1st signal), then ATP 5mM 45 minutes, vs Benzoic acid 30 µM, FIG. 6): inhibition of IL-1β secretion
nitroalkene NSAID adduction with BME (absorbance) ([1]; 10 µM BANA with 30 µM BME, 100 mM phosphate buffer pH 7.4, FIG. 4): absorbance increase
level of pro-inflammatory cytokine IL-1β secretion in blood plasma (IL-1β): marked decrease
level of pro-inflammatory cytokine IL-1β secretion in peritoneal wash (IL-1β): marked decrease

CC(=O)Nc1ccc(O)c(/C=C/[N+](=O)[O-])c1 [PARANA, (E)-N-(4-hydroxy-3-(2-nitrovinyl)phenyl)acetamide]
nitroalkene NSAID adduction with BME (absorbance) ([1]; 30 µM PARANA with 30 µM BME, 100mM phosphate buffer pH 7.4, FIG. 1): absorbance increase

O=[N+]([O-])/C=C/c1ccc(O)cc1 [PheNA, (E)-4-(2-nitrovinyl)phenol]
nitroalkene NSAID adduction with BME (absorbance) ([1]; 50 µM PheNA with 500 µM BME, 100 mM phosphate buffer pH 7.4, FIG. 5): absorbance increase

CC(C)Cc1ccc(C(C)C(=O)O)cc1/C=C/[N+](=O)[O-] (stereo not shown) [IBUNA, (E)-2-(4-isobutyl-3-(2-nitrovinyl)phenyl)propanoic acid]
IL-1β secretion (inflammasome; TUP-1 cells differentiated with PMA, 20 µM together with ATP 5mM 45 minutes (2nd signal), compared with Ibuprofen 20 µM, FIG. 11): unexpected superiority
IL-1β secretion (NF-κB; TUP-1 cells differentiated with PMA, 20 µM together with LPS 250ng/mL (1st signal), compared with Ibuprofen 20 µM, FIG. 10): unexpected superiority
nitroalkene NSAID adduction with BME (absorbance) ([1]; 50 µM IBUNA with 250 µM BME, 100 mM phosphate buffer pH 7.4, FIG. 2): absorbance increase
